Consider 39 compounds from US5658885A, “Amidino and guanidino substituted boronic acid inhibitors of trypsin-like enzymes” (The DuPont Merck Pharmaceutical Company, priority 1994, dated 1997).

Where a name gives a salt, the structure may show the parent alone.

By Ki is commonly meant a measure of affinity in units of concentration, obtained from inhibition or displacement. A higher Ki goes with a looser hold on the target.

In one test the target is T1, human factor Xa (Homo sapiens, UniProt P00742).
T1 construct: 0.2-0.5 nM human thrombin or human factor Xa; purchased Enzyme Research Laboratories, South Bend, Ind
T1 sequence (P00742 235-488 limits assumed): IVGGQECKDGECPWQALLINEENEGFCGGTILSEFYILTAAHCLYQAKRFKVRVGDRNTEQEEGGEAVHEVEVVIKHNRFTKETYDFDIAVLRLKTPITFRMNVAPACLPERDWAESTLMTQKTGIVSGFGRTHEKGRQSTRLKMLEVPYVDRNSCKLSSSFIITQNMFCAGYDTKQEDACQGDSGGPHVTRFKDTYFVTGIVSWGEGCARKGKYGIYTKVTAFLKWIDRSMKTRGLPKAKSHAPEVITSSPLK
T1 sequence (P00742 41-179 limits assumed): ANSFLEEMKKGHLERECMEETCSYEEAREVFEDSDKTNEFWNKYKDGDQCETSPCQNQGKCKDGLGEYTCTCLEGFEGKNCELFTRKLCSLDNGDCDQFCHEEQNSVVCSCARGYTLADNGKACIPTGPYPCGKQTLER
The test is described as follows: Inhibition of Factor Xa hydrolysis of chromogenic substrate S2222 (Ki). Type of test: biochemical. The settings on record: S2222, pH 7.5. The protocol:
(§1) The effectiveness of compounds of the present invention as inhibitors of blood coagulation proteases was determined using purified human proteases and synthetic substrates following procedures similar to those described in Kettner et al. (1990).
(§2) For these assays, the rate of enzymatic (thrombin, Factor Xa, and Factor VIIa) hydrolysis of chromogenic substrates (S2238 (H-D-Phe-Pip-Arg-pNA), S2222, and S2288, respectively; Kabi Pharmacia, Franklin, Ohio) was measured both in the absence and presence of compounds of the present invention. […] A decrease in the rate of absorbance change at 405 nm in the presence of inhibitor is indicative of enzyme inhibition. The results of this assay are expressed as inhibitory constant, Ki.
(§3) Thrombin and Xa determinations were made in 0.10M sodium phosphate buffer, pH 7.5, containing 0.20M NaCl, and 0.5% PEG 8000. VIIa determinations were made in 0.05M tris buffer, pH 7.6, containing 0.10M NaCl, 4 mM CaCl2, and 0.1% bovine serum albumin.
(§4) Reactions were allowed to go for 30 minutes and the velocities (rate of absorbance change vs time) were measured in the time frame of 25-30 minutes. The following relationship was used to calculate Ki values. [formula] where: vo is the velocity of the control in the absence of inhibitor;
(§5) vs is the velocity in the presence of inhibitor;
(§6) I is the concentration of inhibitor;
(§7) Ki is the dissociation constant of the enzyme: inhibitor complex;
(§8) S is the concentration of substrate;
(§9) Km is the Michaelis constant.
“Boc--(D)Thiazolylalanine-Pro--boroPhe(m-CN)--C10 H16 [Example 27]”: the Ki was < 500 nM.

For `CC1(C)C2CC3OB(C(Cc4cccc(C#N)c4)NC(=O)C4CCCN4C(=O)[C@@H](Cc4cccnc4)NS(C)(=O)=O)OC3(C)C1C2` (some centres unmarked) [Example 32, Ms--(D)3-Pyridylalanine-Pro--boroPhe(m-CN)--C10 H16], the Ki was < 500 nM.

As for `CC(=O)N[C@H](Cc1ccccc1)C(=O)N1CCCC1C(=O)NC(CC1CCC(N)CC1)B1OC2CC3CC(C3(C)C)C2(C)O1` (some centres unmarked) [Example 124], the Ki was < 50000 nM.

`CC1(C)C2CC3OB(C(CCCNC(N)=O)NC(=O)C4CCCN4C(=O)C(Cc4ccccc4)NS(=O)(=O)Cc4ccccc4)OC3(C)C1C2` (centres unmarked) [Example 110, PhCH2 SO2 --(D)Phe--Pro--boroOrn(CONH2)--C10 H16]: the Ki is < 50000 nM.

`CNC(Cc1ccccc1)C(=O)N1CCCC1C(=O)NC(Cc1cccc(C#N)c1)B1OC2CC3CC(C3(C)C)C2(C)O1` (centres unmarked) [Example 25, N--CH3 --(D)Phe--Pro--boroPhe(m-CN)--C10 H16.HCl]: the Ki was < 500 nM.

For a further test, the target named is T2, human thrombin (Homo sapiens, UniProt P00734).
T2 construct: 0.2-0.5 nM human thrombin or human factor Xa; purchased Enzyme Research Laboratories, South Bend, Ind
The test is described as follows: Inhibition of thrombin hydrolysis of chromogenic substrate S2238 (Ki). Type of test: biochemical. The settings on record: S2238, pH 7.5. The protocol: as §1, §2, §3, §4, §5, §6, §7, §8, §9
For the compound “Boc--(D)Thiazolylalanine-Pro--boroPhe(m-CN)--C10 H16 [Example 27]”, the Ki is < 500 nM.

For the compound `CC1(C)C2CC3OB(C(Cc4cccc(C#N)c4)NC(=O)C4CCCN4C(=O)[C@@H](Cc4cccnc4)NS(C)(=O)=O)OC3(C)C1C2` (some centres unmarked) [Example 32, Ms--(D)3-Pyridylalanine-Pro--boroPhe(m-CN)--C10 H16], the Ki was < 500 nM.

As to “CH3 (CH2)3 SO2 --(D)Phe--Pro--boroArg(CH3)--OH.HCl [Example 65]”, the inhibitory constant (Ki) is < 500 nM.

As to `CC1(C)C2CC3OB(C(Cc4cccc(C#N)c4)NC(=O)[C@@H]4CCCN4C(=O)/C=C/c4cccnc4)OC3(C)C1C2` (stereo in doubt) [Example 42, trans-3-(3-pyridyl)acryl-Pro--boroPhe(m-CN)--C10 H16], the Ki is < 500 nM.

As for `CN(CC(=O)NC(Cc1cccc(C#N)c1)B1OC2CC3CC(C3(C)C)C2(C)O1)C(=O)C(Cc1ccccc1)NC(=O)OC(C)(C)C` (centres unmarked) [Example 73, Boc--(D)Phe--Sar--boroPhe(m-CN)--C10 H16], the Ki is < 500 nM.

In the case of `CC1(C)C2CC3OB(C(Cc4cccc(C#N)c4)NC(=O)C4CCCN4)OC3(C)C1C2` (centres unmarked) [Example 26, H--Pro--boroPhe(m-CN)--C10 H16.HCl], the Ki was < 50000 nM.

As to `N#Cc1cccc(CC(NC(=O)C2CCCN2C(=O)C(Cc2ccccc2)NC(=O)CCC(=O)O)B(O)O)c1` (centres unmarked) [Example 44, Succinyl-(D)Phe--Pro--boroPhe(m-CN)--OH], the Ki was < 500 nM.

Turning to `CC(=O)N[C@H](Cc1ccccc1)C(=O)N1CCC[C@H]1C(=O)NC(CCCCC#N)B1OC2CC3CC(C3(C)C)C2(C)O1` (some centres unmarked) [Example 1, Ac--(D)Phe--Pro--NH--CH[(CH2)4 CN]BO2 C10 H16], the Ki was < 50000 nM.

As to `CC(=O)N[C@H](Cc1ccccc1)C(=O)N1CCCC1C(=O)NC(CC1CCC(N)CC1)B1OC2CC3CC(C3(C)C)C2(C)O1` (some centres unmarked) [Example 124], the inhibition constant (Ki) was < 500 nM.

Turning to `COC(=O)C(Cc1cccc(C#N)c1)NC(=O)C1CCCN1C(=O)C(Cc1ccccc1)NC(=O)OC(C)(C)C` [Example 129, Boc--(D)Phe--Pro--(R)Phe(mCN)--OMe], the Ki was < 500 nM.

Regarding `CC1(C)C2CC3OB(C(Cc4cccc(C#N)c4)NC(=O)C4CCCN4C(=O)CCc4cccnc4)OC3(C)C1C2` (centres unmarked) [Example 45, 3-Pyridylpropionyl-Pro--boroPhe(m-CN)--C10 H16], the Ki was < 500 nM.

For the compound `CC(C)(C)OC(=O)NC(Cc1ccccc1)C(=O)N1CCCC1C(=O)NC(CCCONC(=N)N)B1OC2CC3CC(C3(C)C)C2(C)O1` (centres unmarked) [Example 104, Boc--(D)Phe--Pro--boroGly[(CH2)3 --ONHC(=NH)NH2]--C10 H16.HCl], the Ki was < 500 nM.

For `CC1(C)C2CC3OB(C(CCCNC(N)=O)NC(=O)C4CCCN4C(=O)C(Cc4ccccc4)NS(=O)(=O)Cc4ccccc4)OC3(C)C1C2` (centres unmarked) [Example 110, PhCH2 SO2 --(D)Phe--Pro--boroOrn(CONH2)--C10 H16], the Ki was < 500 nM.

As for `COC(=O)C(Cc1cccc(C#N)c1)NC(=O)C1CCCN1C(=O)C(Cc1ccccc1)NC(=O)OC(C)(C)C` [Example 130, Boc--(D)Phe--Pro--(S)Phe(mCN)--OMe], the Ki was < 500 nM.

Regarding `CCCS(=O)(=O)N[C@H](Cc1ccccc1)C(=O)N1CCC[C@H]1C(=O)N[C@@H](CCCNC=N)B(O)O` [Example 63, CH3 CH2 CH2 SO2 --(D)Phe--Pro--boroOrn(CH=NH)--OH.HCl], the Ki is < 500 nM.

For `COCCCC(NC(=O)C1CCCN1C(=O)C(N)Cc1ccccc1)B1OC2CC3CC(C3(C)C)C2(C)O1` (centres unmarked) [Example 139, H--(D)--Phe--Pro--boroGly[(CH2)3 --OCH3]--C10 H16], the inhibitory constant (Ki) is < 500 nM.

`N#Cc1cccc(CC(NC(=O)C2CCCN2C(=O)C(N)Cc2ccccc2)B(O)O)c1` (centres unmarked) [Example 19, H--(D)Phe--Pro--boroPhe(m-CN)--OH.HCl]: the inhibitory constant (Ki) was < 500 nM.

With `CNC(Cc1ccccc1)C(=O)N1CCCC1C(=O)NC(Cc1cccc(C#N)c1)B1OC2CC3CC(C3(C)C)C2(C)O1` (centres unmarked) [Example 25, N--CH3 --(D)Phe--Pro--boroPhe(m-CN)--C10 H16.HCl], the Ki is < 500 nM.

On to “HOOCCH2 --(D)Phe--Pro--boroOrn(CONH2)--C10 H16.HCl [Example 111]”, for which the inhibition constant Ki was < 500 nM.

In the case of `CC1(C)C2CC3OB(C(CCCNS(C)(=O)=O)NC(=O)[C@@H]4CCCN4C(=O)[C@@H](Cc4ccccc4)NS(=O)(=O)Cc4ccccc4)OC3(C)C1C2` (some centres unmarked) [Example 120, PhCH2 SO2 --(D)Phe--Pro--boroOrn(N-Methanesulfonyl)-C10 H16], the Ki is < 500 nM.

As to `COCCCC(NC(=O)C1CCCN1C(=O)C(Cc1ccccc1)NC(=O)OC(C)(C)C)B1OC2CC3CC(C3(C)C)C2(C)O1` (centres unmarked) [Example 138, Boc--(D)--Phe--Pro--boroGly[(CH2)3 --OCH3]--C10 H16], the inhibition constant Ki was < 500 nM.

Turning to `CC(C)(C)OC(=O)NC(Cc1ccccc1)C(=O)N1CCCC1C(=O)NC(CCCNC(=O)CO)B1OC2CC3CC(C3(C)C)C2(C)O1` (centres unmarked) [Example 112, Boc--(D)Phe--Pro--boroOrn(COCH2 OH)--C10 H16], the Ki is < 500 nM.

As for `CC(=O)NCC(=O)N[C@H](Cc1ccccc1)C(=O)N1CCC[C@H]1C(=O)NC(CCCNS(C)(=O)=O)B1OC2CC3CC(C3(C)C)C2(C)O1` (some centres unmarked) [Example 118, Ac--Gly--(D)Phe--Pro--BoroOrn(N-Methanesulfonyl)-C10 H16], the inhibition constant Ki was < 500 nM.

With `COCCCC(NC(=O)C1CCCN1C(=O)C(Cc1ccccc1)NC(=O)CNC(C)=O)B1OC2CC3CC(C3(C)C)C2(C)O1` (centres unmarked) [Example 144, Ac--Gly--(D)--Phe--Pro--boroGly[(CH2)3 --OCH3]--C10 H16], the Ki was < 500 nM.

For the compound `CC(=O)N[C@H](Cc1ccccc1)C(=O)N1CCC[C@H]1C(=O)N[C@@H](Cc1cccc(Br)c1)B1O[C@@H]2C[C@@H]3C[C@@H](C3(C)C)[C@]2(C)O1` [Example 14, Ac--(D)Phe--Pro--boroPhe(m-Br)--C10 H16], the Ki is < 500 nM.

As to `CCCS(=O)(=O)NC(Cc1ccccc1)C(=O)N1CCCC1C(=O)NC(CCCNC(=N)NC)B(O)O` (centres unmarked) [Example 64, CH3 CH2 CH2 SO2 --(D)Phe--Pro--boroArg(CH3)--OH.HCl], the Ki was < 500 nM.

Take “HOOCCH2 --(D)Phe--Pro--boroOrn[C(NCN)NHCH3 ]--C10 H16.HCl [Example 106]”: the Ki is < 500 nM.

Regarding `CN(C(=O)OC(C)(C)C)C(Cc1ccccc1)C(=O)N1CCCC1C(=O)NC(Cc1cccc(C#N)c1)B1OC2CC3CC(C3(C)C)C2(C)O1` (centres unmarked) [Example 33, N--Boc--N--CH3 --(D)Phe--Pro--boroPhe(m-CN)--C10 H16], the inhibitory constant (Ki) is < 500 nM.

Regarding “Hydrocinnamoyl-Pro--boroIrg(CH3)--OH.HBr [Example 50]”, the Ki was < 50000 nM.

Take “H--(D)Thiazolylalanine-Pro--boroPhe(m-CN)--C10 H16.HCl [Example 29]”: the Ki was < 500 nM.

Regarding `CC1(C)C2CC3OB(C(CCCNC=N)NC(=O)c4ccc(-c5ccccc5)cc4)OC3(C)C1C2` (centres unmarked) [Example 76, 4-(Phenyl)benzoyl-boroOrn(CH=NH)--C10 H16.HCl], the Ki is < 500 nM.

On to `CC(C)(C)OC(=O)N[C@H](Cc1ccccc1)C(=O)N1CCC[C@H]1C(=O)NC(CCCNC=N)B1OC2CC3CC(C3(C)C)C2(C)O1` (some centres unmarked) [Example 6, Boc--(D)Phe--Pro--boroOrn(CH=NH)]--C10 H16.0.5 HCl.0.5 BSA], for which the Ki was < 500 nM.

Turning to “PhSO2 --(D)Phe--Pro--boroOrn(CH=NH)--OH.HCl [Example 59]”, the Ki was < 500 nM.

In the case of `CC1(C)C2CC3OB(C(CCCNS(C)(=O)=O)NC(=O)[C@@H]4CCCN4C(=O)[C@H](N)Cc4ccccc4)OC3(C)C1C2` (some centres unmarked) [Example 114, H--(D)Phe--Pro--boroOrn(N-Methanesulfonyl)-C10 H16.HCl], the Ki was < 500 nM.

With `CC1(C)C2CC3OB(C(CCCON)NC(=O)C4CCCN4C(=O)C(Cc4ccccc4)NS(=O)(=O)Cc4ccccc4)OC3(C)C1C2` (centres unmarked) [Example 103, PhCH2 SO2 --(D)Phe--Pro--boroGly[(CH2)3 --ONH2]--C10 H16.HCl], the Ki is < 500 nM.

For `CC(=O)NC(Cc1ccccc1)C(=O)N1CCCC1C(=O)NC(Cc1ccc(C(=N)N)cc1)B1OC2CC3CC(C3(C)C)C2(C)O1` (centres unmarked) [Example 22, Ac--(D)Phe--Pro--boroPhe(p-C(NH)NH2)--C10 H16.BSA], the Ki is < 500 nM.

For `CC(C)(C)OC(=O)N[C@H](Cc1ccccc1)C(=O)N1CCCC1C(=O)NC(CCCNS(C)(=O)=O)B1OC2CC3CC(C3(C)C)C2(C)O1` (some centres unmarked) [Example 113, Boc--(D)Phe--Pro--boroOrn(N-Methanesulfonyl)--C10 H16], the Ki is < 500 nM.

Regarding `CC(=O)NC(Cc1ccccc1)C(=O)N1CCCC1C(=O)NC(Cc1ccc(C#N)cc1)B1OC2CC3CC(C3(C)C)C2(C)O1` (centres unmarked) [Example 16, Ac--(D)Phe--Pro--boroPhe(p-CN)--C10 H16], the Ki is < 500 nM.

`CN[C@H](Cc1ccccc1)C(=O)N1CCCC1C(=O)NC(CCCOC)B1OC2CC3CC(C3(C)C)C2(C)O1` (some centres unmarked) [Example 142, N-methyl-(D)--Phe--Pro--boroGly[(CH2)3 --OCH3]--C10 H16]: the Ki is < 500 nM.
